One test concerns the target T1, human AT1 receptor (Homo sapiens, UniProt P30556).
T1 construct: expressed in transfected cells; host or cells: CHO-K1
T1 sequence (P30556 1-359): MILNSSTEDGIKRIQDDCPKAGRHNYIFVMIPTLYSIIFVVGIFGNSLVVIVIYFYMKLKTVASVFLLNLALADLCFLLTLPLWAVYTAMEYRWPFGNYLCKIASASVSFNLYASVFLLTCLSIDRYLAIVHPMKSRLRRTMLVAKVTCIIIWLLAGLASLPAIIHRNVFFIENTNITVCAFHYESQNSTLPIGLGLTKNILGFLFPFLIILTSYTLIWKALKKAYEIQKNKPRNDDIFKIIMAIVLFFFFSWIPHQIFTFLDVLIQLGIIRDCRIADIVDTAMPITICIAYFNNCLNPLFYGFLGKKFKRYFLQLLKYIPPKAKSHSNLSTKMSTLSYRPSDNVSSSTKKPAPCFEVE
Briefly: AT1 radioligand binding assay (displacement of [Eu]AngII). Particulars: membranes of CHO-K1 cells expressing cloned human AT1 receptor; values given as lower bounds; read-out: AT1 pKi (converted). Summed up:
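Membranes from CHO-K1 cells stably expressing cloned human AT1, 0.2 μg protein, in 50 mM Tris/HCl pH 7.5, 5 mM MgCl2, 0.025% BSA. Compounds displaced [Eu]AngII over 120 min in the dark at room temperature or 37° C; filter-bound TRF read. Nonspecific binding with 10 μM angiotensin II; IC50 converted to Ki via Cheng-Prusoff, reported as pKi.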

The next test has as its target T2, NEP enzyme (Homo sapiens, UniProt P08473).
T2 construct: purchased R&D Systems, Minneapolis, Minn; 1182-ZN
Briefly: NEP enzyme inhibition assay (fluorogenic peptide substrate). It is filed as biochemical. The note with it: values given as lower bounds; * = prodrugs, may not exhibit NEP activity in an in vitro assay; read-out: NEP pIC50 (converted). Summed up: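 Recombinant human NEP was run with Mca-BK2 (10 μM) at room temperature in Tris buffer with 1 μM Zn. Compounds (10 μM–20 pM, 12 points) were pre-equilibrated 10 min, then reacted 20 min and acid-stopped. Fluorescence ex 320/em 405 nm, one-site competition fit gives pIC50. Thiol compounds may be pre-treated with 400 μM TCEP.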

The results in this text go back to patent publication US8350027B2, “Dual-acting pyrazole antihypertensive agents” (Theravance, Inc., priority 2009, dated 2013).

T2 sequence (P08473 52-750 limits assumed): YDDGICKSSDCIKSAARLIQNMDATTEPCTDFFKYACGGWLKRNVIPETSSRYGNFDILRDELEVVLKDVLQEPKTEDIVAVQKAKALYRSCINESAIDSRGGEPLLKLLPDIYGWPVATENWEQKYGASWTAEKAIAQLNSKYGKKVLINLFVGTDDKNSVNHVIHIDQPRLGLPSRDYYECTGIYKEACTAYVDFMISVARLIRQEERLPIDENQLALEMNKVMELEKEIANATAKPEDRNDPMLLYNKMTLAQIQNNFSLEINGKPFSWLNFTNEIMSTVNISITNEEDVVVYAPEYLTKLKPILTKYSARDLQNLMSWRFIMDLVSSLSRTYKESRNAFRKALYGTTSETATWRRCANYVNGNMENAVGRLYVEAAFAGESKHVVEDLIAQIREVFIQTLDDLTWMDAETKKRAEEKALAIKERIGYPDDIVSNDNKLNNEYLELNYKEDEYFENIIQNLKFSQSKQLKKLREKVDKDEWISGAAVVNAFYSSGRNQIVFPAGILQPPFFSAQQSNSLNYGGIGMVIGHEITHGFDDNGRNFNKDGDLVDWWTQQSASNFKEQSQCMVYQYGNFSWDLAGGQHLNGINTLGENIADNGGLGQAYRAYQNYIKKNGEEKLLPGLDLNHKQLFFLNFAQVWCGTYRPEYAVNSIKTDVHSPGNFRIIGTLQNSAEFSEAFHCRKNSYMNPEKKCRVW

`CCCc1cc(C(=O)N[C@@H](CS)Cc2ccccc2)nn1Cc1ccc(-c2ccccc2-c2nnn[nH]2)nc1` [Example 14-2, 5-Propyl-1-{6-[2-(1H-tetrazol-5-yl)phenyl]pyridin-3-ylmethyl}-1H-pyrazole-3-carboxylic acid ((R)-1-benzyl-2-mercaptoethyl)amide]: the Ki at human AT1 receptor was at most 10 nM. Besides, the IC50 on NEP enzyme is at most 100 nM.
In the same order, the values of `CCCc1cc(C(=O)N[C@H](Cc2ccccc2)[C@@H](O)C(=O)O)nn1Cc1ccc(-c2ccccc2-n2nn[nH]c2=O)cc1` [Example 16-3, (2R,3R)-2-Hydroxy-3-({1-[2′-(5-oxo-4,5-dihydrotetrazol-1-yl)-biphenyl-4-ylmethyl]-5-propyl-1H-pyrazole-3-carbonyl}amino)-4-phenylbutyric acid] are at most 10 nM and at most 100 nM.
With `CCCc1cc(C(=O)N[C@@H](CC(=O)O)Cc2ccccc2Br)nn1Cc1ccc(-c2ccccc2-c2nnn[nH]2)cc1` [Example 3-13, (R)-4-(2-Bromophenyl)-3-({5-propyl-1-[2′-(1H-tetrazol-5-yl)-biphenyl-4-ylmethyl]-1H-pyrazole-3-carbonyl}amino)butyric acid], the Ki at human AT1 receptor is at most 10 nM. The IC50 at NEP enzyme is at most 1000 nM.
As for `CCCc1cc(C(=O)N[C@H](Cc2ccccc2)[C@@H](O)C(=O)O)nn1Cc1ccc(-c2ccccc2S(=O)(=O)NC(C)=O)cc1F` [Example 6-14, (2R,3R)-3-(1-((2′-(N-acetylsulfamoyl)-3-fluorobiphenyl-4-yl)methyl)-5-propyl-1H-pyrazole-3-carboxamido)-2-hydroxy-4-phenylbutanoic acid], the Ki on human AT1 receptor was at most 10 nM. For the same molecule, the IC50 at NEP enzyme was at most 100 nM.
Regarding `CCCc1cc(C(=O)N[C@@H](CC(=O)O)Cc2ccco2)nn1Cc1ccc(-c2ccccc2-c2nnn[nH]2)nc1` [Example 14-11, (R)-4-Furan-2-yl-3-[(5-propyl-1-{6-[2-(1H-tetrazol-5-yl)phenyl]pyridin-3-ylmethyl}-1H-pyrazole-3-carbonyl)amino]butyric acid], on human AT1 receptor, the Ki is at most 10 nM. Besides, the IC50 at NEP enzyme is at most 1000 nM.
In the case of `CCCc1cc(C(=O)N[C@H](Cc2ccccc2)[C@@H](O)C(=O)O)nn1Cc1ccc(-c2ccccc2S(=O)(=O)NC(=O)[C@H](C)O)cc1` [Example 7-13, (2R,3R)-2-Hydroxy-3-({1-[2′-((S)-2-hydroxypropionylsulfamoyl)biphenyl-4-ylmethyl]-5-propyl-1H-pyrazole-3-carbonyl}amino)-4-phenylbutyric acid], the Ki on human AT1 receptor was at most 10 nM. Further, the IC50 on NEP enzyme was at most 100 nM.
In the same order, the values of `CCCc1cc(C(=O)N[C@H](Cc2ccccc2)[C@@H](O)C(=O)O)nn1Cc1ccc(-c2ccccc2S(=O)(=O)NC(=O)c2ccccn2)cc1` [Example 7-9, (2R,3R)-2-Hydroxy-4-phenyl-3-[(5-propyl-1-{2′-[(pyridine-2-carbonyl)sulfamoyl]biphenyl-4-ylmethyl}-1H-pyrazole-3-carbonyl)amino]butyric acid] are at most 10 nM and at most 1000 nM.
`CCCc1cc(C(=O)N[C@@H](CC(=O)O)Cc2ccccc2Br)nn1Cc1ccc(-c2ccccc2-c2nnn[nH]2)nc1` [Example 14-4, (R)-4-(2-Bromophenyl)-3-[(5-propyl-1-{6-[2-(1H-tetrazol-5-yl)-phenyl]-pyridin-3-ylmethyl}-1H-pyrazole-3-carbonyl)amino]butyric acid]: the Ki on human AT1 receptor was at most 10 nM. The IC50 on NEP enzyme was at most 100 nM.
For `CCCc1cc(C(=O)N[C@H](Cc2ccccc2)[C@@H](O)C(=O)O)nn1Cc1ccc(-c2ccccc2S(=O)(=O)NC(=O)C2CC2)cc1` [Example 7-2, (2R,3R)-3-({1-[2′-(Cyclopropanecarbonylsulfamoyl)biphenyl-4-ylmethyl]-5-propyl-1H-pyrazole-3-carbonyl}amino)-2-hydroxy-4-phenylbutyric acid], in that order: at most 10 nM and at most 100 nM.
